The values that follow come from patent US20080139536A1, “Benzodiazepines for Treating or Preventing Rsv Infection” (Novartis Pharmaceuticals Corporation, priority 2004, published 2008).

The subject of the first experiment is RSV (RSS strain). The experiment can be described thus: RSV ELISA antigen reduction assay in Hep-2 cells. It counts as cell-based, Respiratory Syncytial Virus. Particulars: RSV-infected Hep-2 cells, 3 day assay, ELISA OD 490 nm, 7-point dilution 50 μM-0.78 μM. How it is done:
This was quantified by optical density (OD) measurement.
This assay was set up using all 96 wells of flat-bottomed 96-well plates. The outer wells were not subjected to any greater amount of evaporation than the inner wells during the 3 day assay period. (i.e. No “edge effect” seen).
Plates were set up one day before addition of virus and compounds. The assay then ran for 3 days with ELISA development taking place on the 4th day.
All 96 wells of a microtitre plate were seeded at a density of 4×10^3 Hep-2 cells/well in 100 μl/well of Growth Medium (GM) consisting of Dulbecco's MEM (DMEM) with Glutamax-1, Sodium Pyruvate, 1000 mg/l glucose and pyridoxine (Invitrogen, catalogue number 21885-025) and supplemented with 10% FBS. (See Plate 1).
A frozen vial of RSV (RSS strain provided by Virogen Ltd) stock solution was removed from the −80 freezer or liquid nitrogen store and diluted to a known Multiplicity of Infection (m.o.i) in Growth Medium.
The m.o.i. was calculated by prior titration of the virus stock (by the ELISA assay method) as the virus input required to achieve a window of at least 0.8 OD units between infected and uninfected control wells.
50 μl of diluted virus was added to infected, “virus+”, wells by multichannel pipette; 50 μl of Growth Medium was added to uninfected, cell control wells (CC) by multichannel pipette. (See Plate 2)
Plates were incubated at 37° C. for 1 hr to allow virus adsorption.
Compounds were made up at 4× strength in GM containing 2% DMSO (a final DMSO concentration in the assay of 0.5%).
Six compounds were tested on each assay plate as illustrated below. (See Plate 3). Compounds were tested in duplicate wells across a 7-point dilution series (from 50 μM-0.78 μM): in the presence of virus.
Virus infected, untreated wells served as the virus control (VC); Uninfected, untreated wells serve as the cell control (CC). The difference in absorbance between CC and VC wells constitutes the assay window.
200 μl of GM containing 2% DMSO was added to all wells except the ‘50 μM’ or first column, to which 392 μl of GM was added. 8 μl of each test compound was cherry-picked from a thawed Arrow screening plate and transferred to the appropriate well in the ‘50 μM’ column. Since the compound stock was at 10 mM in 100% DMSO, this will maintain the DMSO level at 2% at the top compound concentration.
Using a multichannel pipette, 200 μl was transferred from the 50 μM column to the 25 μM column, then to the 12.5 μM column and so on across the dilution plate creating a serial doubling dilution. Compounds were mixed upon transfer and tips changed between transfers, ensuring also that no compound was transferred to the last column of compound-free wells (0 μM).
The dilution plate was turned lengthways and 50 μl of compound easily transferred by multichannel pipette from the dilution plate to the assay plate, column by column. There was therefore an excess of 100 μl remaining in the dilution plate.
Plates were incubated at 37° C., 5% CO2 for 3 days.
Media was tapped out from wells directly into Virkon (1% solution in water) and plates were washed by immersing in a plastic box containing PBS. 50 μl/well of 75%/25% vol/vol acetone/methanol fixative was added by multichannel pipette and left for 3 mins.
Some 200 μl of blocking solution (2% Marvel in PBS containing 0.05% Tween) was added per well by multichannel pipette. Plates were incubated at 37° C. in a shaking incubator for 60 mins.
RSV mouse monoclonal antibody NCL-RSV3 (Novocastra) was diluted 1/400 in PBS/2% Marvel/0.05% Tween and 50 μl was added per well. Plates were incubated at 37° C. in a shaking incubator for 90 mins.
DAKo rabbit anti-mouse HRP conjugate (DAKO catalogue number P0260) was diluted 1/1000 in PBS/2% Marvel/0.05% Tween and 50 μl was added per well. Plates were incubated at 37° C. in a shaking incubator for 60 mins.
Substrate (SigmaFast OPD) was prepared in advance by dissolving 1 urea tablet in 20 mL water. […]
In the case of `CN(CCS(C)(=O)=O)Cc1ccc(C(=O)N[C@H]2N=C(c3ccccc3)c3ccccc3NC2=O)o1` [Example 37], the IC50 (commonly the midpoint of a concentration-inhibition curve) is under 5 µM. On the same count and under the same terms, for `O=C(N[C@H]1N=C(c2ccccc2)c2ccccc2NC1=O)c1c(Cl)cccc1N1CCS(=O)(=O)CC1` [Example 26, (S)-2-Chloro-6-(1,1-dioxo-1,6-thiomorpholin-4-yl)-N-(2-oxo-5-phenyl-2,3-dihydro-1H-benzo[e][1,4]diazepin-3-yl)-benzamide] the value was under 5 µM; for “(S)-2-(1,1-Dioxo-1λ6-thiomorpholin-4-yl)-N-(2-oxo-5-phenyl-2,3-dihydro-1H-benzo[e][1,4]diazepin-3-yl)-nicotinamide [Example 22]”, over 10 µM. The same measure, in the same setting: for “(S)-5-Pyrrolidin-1-ylmethyl-furan-2-carboxylic acid (2-oxo-5-phenyl-2,3-dihydro-1H-benzo[e][1,4]diazepin-3-yl)-amide [Example 9]” the value was 5 to 10 µM.

The experiment is the same for the next values; noted with them: human respiratory syncytial virus, 72 h; RSV-infected Hep-2 cells, 3 day assay, ELISA OD 490 nm, 7-point dilution 50 μM-0.78 μM.
`Cc1cccc(N2CCS(=O)(=O)CC2)c1C(=O)N[C@H]1N=C(c2ccccc2)c2ccccc2NC1=O` [Example 25, (S)-2-(1,1-Dioxo-1λ6-thiomorpholin-4-yl)-6-methyl-N-(2-oxo-5-phenyl-2,3-dihydro-1H-benzo[e][1,4]diazepin-3-yl)-benzamide] came in with an IC50 of over 10 µM. Still for that read-out and setting: next, `CN1CCN(c2ccc(C(=O)NC3N=C(c4ccccc4)c4ccccc4NC3=O)cn2)CC1` (racemic) [Example 1, 6-(4-Methyl-piperazin-1-yl)-N-(2-oxo-5-phenyl-2,3-dihydro-1H-benzo[e][1,4]diazepin-3-yl)-nicotinamide]: 5 to 10 µM; `O=C(N[C@H]1N=C(c2ccccc2)c2ccccc2NC1=O)c1ccoc1CN1CCOCC1` [Example 41, (S)-2-Morpholin-4-ylmethyl-furan-3-carboxylic acid (2-oxo-5-phenyl-2,3-dihydro-1H-benzo[e][1,4]diazepin-3-yl)-amide]: under 5 µM; `O=C(N[C@H]1N=C(c2ccccc2)c2ccccc2NC1=O)c1ncoc1-c1ccccc1` [Example 51, (S)-5-Phenyl-oxazole-4-carboxylic acid (2-oxo-5-phenyl-2,3-dihydro-1H-benzo[e][1,4]diazepin-3-yl)-amide]: under 5 µM. Same read-out and setting: for `Cc1ccc(C(=O)N[C@H]2N=C(c3ccccc3)c3ccccc3NC2=O)c(N2CCS(=O)(=O)CC2)c1` [Example 24, (S)-2-(1,1-Dioxo-1λ6-thiomorpholin-4-yl)-4-methyl-N-(2-oxo-5-phenyl-2,3-dihydro-1H-benzo[e][1,4]diazepin-3-yl)-benzamide] the value was under 5 µM. Same read-out and setting: next, `O=C1Nc2ccccc2C(c2ccccc2)=N[C@@H]1NC(=O)n1c(=O)n(C2CC2)c2ncccc21` [Example 27, (S)-3-Cyclopropyl-2-oxo-2,3-dihydro-imidazo[4,5-b]pyridine-1-carboxylic acid (2-oxo-5-phenyl-2,3-dihydro-1H-benzo[e][1,4]diazepin-3-yl)-amide]: over 10 µM.

`O=C(N[C@H]1N=C(c2ccccc2)c2ccccc2NC1=O)c1ccc(CN2CCS(=O)(=O)CC2)o1` [Example 34, (S)-5-(1,1-Dioxo-1λ6-thiomorpholin-4-ylmethyl)-furan-2-carboxylic acid (2-oxo-5-phenyl-2,3-dihydro-1H-benzo[e][1,4]diazepin-3-yl)-amide] gave an IC50 of under 5 µM. `O=C(N[C@H]1N=C(c2ccccc2)c2ccccc2NC1=O)c1sccc1CN1CCOCC1` [Example 48, (S)-3-Morpholin-4-ylmethyl-thiophene-2-carboxylic acid (2-oxo-5-phenyl-2,3-dihydro-1H-benzo[e][1,4]diazepin-3-yl)-amide]: the IC50 was under 5 µM. On the same count and under the same terms, for `O=C(N[C@H]1N=C(c2ccccc2)c2ccccc2NC1=O)c1ccc(C(F)(F)F)cc1N1CCOCC1` [Example 18, (S)-2-Morpholin-4-yl-N-(2-oxo-5-phenyl-2,3-dihydro-1H-benzo[e][1,4]diazepin-3-yl)-4-trifluoromethyl-benzamide] the value was under 5 µM.

On to `O=C(N[C@H]1N=C(c2ccccc2)c2ccccc2NC1=O)c1csc(-c2ccncc2)n1` [Example 39, (S)-2-Pyridin-4-yl-thiazole-4-carboxylic acid (2-oxo-5-phenyl-2,3-dihydro-1H-benzo[e][1,4]diazepin-3-yl)-amide], for which the IC50 is under 5 µM. The molecule `Cc1nc(-c2cnccn2)sc1C(=O)N[C@H]1N=C(c2ccccc2)c2ccccc2NC1=O` [Example 40, (S)-4-Methyl-2-pyrazin-2-yl-thiazole-5-carboxylic acid (2-oxo-5-phenyl-2,3-dihydro-1H-benzo[e][1,4]diazepin-3-yl)-amide] showed an IC50 of 5 to 10 µM. In turn, `O=C(NC1N=C(c2ccccc2)c2ccccc2NC1=O)c1ccccc1N1CCOCC1` (racemic) [Example 50, 2-Morpholin-4-yl-N-(2-oxo-5-phenyl-2,3-dihydro-1H-benzo[e][1,4]diazepin-3-yl)-benzamide] returned an IC50 of under 5 µM. The same measure, in the same setting: for `O=C(N[C@H]1N=C(c2ccccc2)c2ccccc2NC1=O)c1ccc(CN2CCOCC2)s1` [Example 49, (S)-5-Morpholin-4-ylmethyl-thiophene-2-carboxylic acid (2-oxo-5-phenyl-2,3-dihydro-1H-benzo[e][1,4]diazepin-3-yl)-amide] the value was under 5 µM; for `O=C(N[C@H]1N=C(c2ccccc2)c2ccccc2NC1=O)c1ccc(N2CCOCC2)cc1Cl` [Example 4, (S)-2-Chloro-4-morpholin-4-yl-N-(2-oxo-5-phenyl-2,3-dihydro-1H-benzo[e][1,4]diazepin-3-yl)-benzamide], under 5 µM; for `O=C(N[C@H]1N=C(c2ccccc2)c2ccccc2NC1=O)c1cc(CN2CCOCC2)on1` [Example 43, (S)-5-Morpholin-4-ylmethyl-isoxazole-3-carboxylic acid (2-oxo-5-phenyl-2,3-dihydro-1H-benzo[e][1,4]diazepin-3-yl)-amide], under 5 µM. `O=C(N[C@H]1N=C(c2ccccc2)c2ccccc2NC1=O)c1ccc(N2CCS(=O)(=O)CC2)cc1Cl` [Example 35, (S)-2-Chloro-4-(1,1-dioxo-1λ6-thiomorpholin-4-yl)-N-(2-oxo-5-phenyl-2,3-dihydro-1H-benzo[e][1,4]diazepin-3-yl)-benzamide] came in with an IC50 of under 5 µM. Turning to `O=C(N[C@H]1N=C(c2ccccc2)c2ccccc2NC1=O)c1ccc(C(F)(F)F)cc1N1CCCCC1` [Example 17, (S)—N-(2-Oxo-5-phenyl-2,3-dihydro-1H-benzo[e][1,4]diazepin-3-yl)-2-piperidin-1-yl-4-trifluoromethyl-benzamide], the IC50 fell in the range of 5 to 10 µM.

`CN1CCN(c2ccc(C(=O)N[C@H]3N=C(c4ccccc4)c4ccccc4NC3=O)cc2)CC1` [Example 29, (S)-4-(4-Methyl-piperazin-1-yl)-N-(2-oxo-5-phenyl-2,3-dihydro-1H-benzo[e][1,4]diazepin-3-yl)-benzamide] came in with a 50% inhibitory concentration (IC50) of under 5 µM. The same measure, in the same setting: next, `O=C(N[C@H]1N=C(c2ccccc2)c2ccccc2NC1=O)c1cc(C(F)(F)F)ccc1N1CCCC1` [Example 19, (S)—N-(2-Oxo-5-phenyl-2,3-dihydro-1H-benzo[e][1,4]diazepin-3-yl)-2-pyrrolidin-1-yl-5-trifluoromethyl-benzamide]: under 5 µM. For the molecule `CN(C)Cc1ccc(C(=O)N[C@H]2N=C(c3ccccc3)c3ccccc3NC2=O)o1` [Example 11, (S)-5-Dimethylaminomethyl-furan-2-carboxylic acid (2-oxo-5-phenyl-2,3-dihydro-1H-benzo[e][1,4]diazepin-3-yl)-amide], the IC50 was under 5 µM.
